Test results reported in patent US20030232102A1, “Total glycosides of paeony, method to prepare the same and uses thereof” (priority 2001, published 2003).
Where two headings read alike, the source gives them in different places.

Assays:
[1] = system: Wistar rats, Model of Arthritis (BCG vaccine); assay: Primary inflammation: degree of swelling of injected feet, BCG vaccine arthritis model; assay type: in vivo
Method: (§1) Animal: Wistar rats, 2-3 months, 180±30 g.
(§2) Chemical agents: Paeoniflorin R1, Lobenzarit disodium (CCA), Indomethacin (IM), and BCG vaccine
(§3) Model of Arthritis: inject 0.1 ml of 10 mg BCG vaccine to the right hind foot, bottom side, intracutaneously.
Primary inflammation: Degree of swelling of injected feet (primary inflammation): oral treatment was given 30 minutes before the inflammatory injection (BCG vaccine). The degree of swelling was measured 1, 3, 5, and 7 days after the injection.
Oral administration of Paeoniflorin R1 30˜60 minutes before inflammatory injection.
TGP's influence on degree of swelling of injected feet (primary inflammation)

[2] = system: abdominal cavity macrophage; assay: Kinemics of abdominal cavity macrophage PGE2 release in arthritis rats (Paeoniflorin R1); assay type: in vivo; conditions: treatment from 1st day after inflammatory injection, sacrificed day 7, 14, 21, 28; FIG. 46
From the text: Kinemics in Abdominal Cavity Macrophage Release PGE2
Paeoniflorin R1 treatment started the 1st day after inflammatory injection, animal sacrificed on day 7, 14, 21, and 28.

[3] = system: Wistar rats, Model of Arthritis (BCG vaccine); assay: Secondary inflammation: swelling of opposite non-injected feet and thymus weight, BCG vaccine arthritis model; assay type: in vivo; conditions: for Degree of Swelling Day 12 / Degree of Swelling Day 16 / Degree of Swelling Day 20 / Degree of Swelling Day 24 / Degree of Swelling Day 28: non-injected feet
Method: as §1, §2, §3
Secondary inflammation: Swelling degree of the opposite non-injected feet (secondary inflammation): oral treatment was given 12-28 days after the inflammatory injection. The degree of swelling was measured 12, 16, 20, 24 and 28 days after the injection.
Groups of animals for secondary inflammation: 6 groups, each contains 6 rats, groups are: 1) Normal control, receive no inflammatory injection and any pre treatment; 2) Negative control, receive inflammatory injection and no treatment; 3) Positive control, receive inflammatory injection and CCA treatment; 4) Paeoniflorin R1 groups (5, 25, 50 mg/kg/d) oral administration of Paeoniflorin R1 30˜60 minutes before inflammatory injection.
TGP's influence on degree of swelling of opposite, non-injected feet (secondary inflammation)

[4] = system: Sprage-Dawley (SD) rats, adjuvant arthritis; assay: Adjuvant arthritis in rats (FCA): primary inflammation, injected foot; assay type: in vivo
[5] = system: Sprage-Dawley (SD) rats, adjuvant arthritis; assay: Adjuvant arthritis in rats (FCA): secondary inflammation, non-injected foot, thymus, pathology; assay type: in vivo
[6] = system: histidine-requiring salmonell typhimurrium mutants TA 97, TA 98, Ta 100 and TA 102; conditions: +S9, 2-AF 10 μg/plate
Method: That was a parallel test between two groups of plates with or without the mixture of S9.
Each course was to be performed twice for three plates of different concentrations. Positive indicators and solvent control were included within all courses. Courses were performed with a ‘pre-incubation’ method, and the final result comes out in average from total six values.

pregnant Wistar rats = assay: Test of teratogenesis in pregnant rats; assay type: in vivo; conditions: 250 mg/kg
Method: Ninety pregnant Wistar rats were numbered by their date of fertilization and randomly divided into five groups. The other two were for the control groups.
A positive and a negative control groups were also set up, rats were given acetosalicylic acid (250 mg/kg) in the positive group and distilled water of the same volume in the negative group.
The positive control group was treated with the acetosalicylic acid from day 9 to 11. Both were by gastric injection.
The body weight of rats in all groups was taken once every three days, and the amount of drugs were adjusted individually after the body weight. Rats were killed at day 20 of pregnancy, wombs and embryos were extracted by cesarean section, which was for the study and examination in a traditional way.

ICR mice [7] = conditions: CTX 80 mg/kg
Method: ICR mice of sexual maturity, all males. Six random groups with eight mice in each one.
With a gradient of 4:1, the four concentrations were set at 2500 mg/kg, 625 mg/kg, […] and 39 mg/kg.
The drug was administered by gastric injection at the above doses together with the positive indicator (Cytoxan) and the solvent control. The course was repeated after 24 hours and animals were killed six hours after the second administration. Samples were taken and examined.

[8] = system: Chinese hamaster lung fibroblast (CHL) cells; assay type: cell-based
Method: TGP, was dissolved in methyl-sulfoxide.
With method of Ishidate (1981), cells were collected in 24 and 48 hours for S9− groups and 24 hours for S9+. All assays were performed twice and their average was taken for final results.

[9] = system: mice, IgM in the spleen cells; assay: Weakened IgM formation of mice induced by cyclophosphamide; assay type: in vivo; conditions: Cy + solvent, Cy 125 mg/kg i.p. at d-3
Method: All groups of mice were sensitized with 0.2 ml 10% SRBC suspension i.p., mice were also administered 125 mg/kg of cyclophosphamide 3 days before the sensitization to make up the models of weakened immunoreactions. […] The mice were killed on the fifth day, organs of spleens and thymus were weighted and quantity of IgM in the spleen cells examined.

[10] = system: mice, IgM in the spleen cells; assay: Enhanced IgM formation of mice induced by cyclophosphamide (spleen cell transfer); assay type: in vivo; conditions: group C: donor mice SOI + Cy + solvent, Cy 100 mg/kg i.p.
From the text: See table 49 and table 50 for grouping and test procedures: spleen cells of donor mice are transferred to acceptor mice. And, SRBC (4×10^8/mouse i.p.) are given to the acceptor mice for additional immune enhancement. Acceptors are killed on the fifth day of transference and examined for the quantity of IgM in the spleen cells.

ICR mice [11] = assay: Enhanced delayed type hypersensitivity (DTH) reaction of mice induced by cyclophosphamide; assay type: in vivo; conditions: Cy + Solvent, Cy 250 mg/kg i.p. at d-3
Method: Cyclophosphamide was administered 3 days before (d-3) the first day sensitization (enhanced DTH model).

synovial cells = assay: IL-1, TNF and PGE2 produced by synovial cells of arthritis rats (Paeoniflorin R1); assay type: in vivo; conditions: 25 mg/kg from 12 days after inflammatory injection, sacrificed day 22; P<0.01
Method: IL-1, TNF, and PGE2 Produced by Synovial Cells
Paeoniflorin R1 treatment (25 mg/kg) started at 12 days after inflammatory injection, animal sacrificed on day 22.

[12] = system: abdominal cavity macrophage; assay: H2O2, IL-1 and PGE2 produced by abdominal cavity macrophage of arthritis rats (Paeoniflorin R1); assay type: in vivo; conditions: 25 mg/kg from 7 days after inflammatory injection, sacrificed day 17; FIG. 44
Method: Amount of H2O2, IL-1, and PGE2 produced by abdominal cavity macrophage: Use 5 rats in each group, paeoniflorin R1 (25 mg/kg) treatment starts 7 days after inflammatory injection, animal sacrificed on day 17.

[13] = system: sub-group T cell in peripheral circulation; assay: Sub-group T cell (Th/Ts) in peripheral circulation of arthritis rats (Paeoniflorin R1); assay type: in vivo; conditions: 25 mg/kg from 18 days after inflammatory injection, sacrificed day 26; P<0.01; FIG. 45
Method: Sub-Group T Cell in Peripheral Circulation
Paeoniflorin R1 treatment (25 mg/kg) started at 18 days after inflammatory injection, animal sacrificed on day 26.

[14] = S9+, CP (60.0 μg/ml, 24, by row order of Table 43)

## COc1ccc2c(c1)c(CC(=O)O)c(C)n2C(=O)c1ccc(Cl)cc1 [IM, Indomethacin]
[1]; 2 mg/kg/d oral
  Degree of Swelling Day 1: 0.52
  Degree of Swelling Day 3: 0.57
  Degree of Swelling Day 5: 0.34
  Degree of Swelling Day 7: 0.30
[2]
  abdominal cavity macrophage PGE2 release: effective in PGE2 release

## O=C(O)c1ccccc1Nc1cc(Cl)ccc1C(=O)O [CCA, Lobenzarit disodium]
[1]; 50 mg/kg/d oral
  Degree of Swelling Day 1: 0.65
  Degree of Swelling Day 3: 0.96
  Degree of Swelling Day 5: 0.68
  Degree of Swelling Day 7: 0.65
[3]; 50 mg/kg/d oral
  W. of Thymus Glands: 14.4 mg/kg body W.
  Degree of Swelling Day 12: 0.40
  Degree of Swelling Day 16: 0.55
  Degree of Swelling Day 20: 0.42
  Degree of Swelling Day 24: 0.14
  Degree of Swelling Day 28: 0.05
[4]; d3, CCA 50 mg/kgd
  Degree of swelling, injected foot: 0.94 ± 0.17
[4]; d5, CCA 50 mg/kgd
  Degree of swelling, injected foot: 0.67 ± 0.18
[4]; d7, CCA 50 mg/kgd
  Degree of swelling, injected foot: 0.63 ± 0.18
[5]; AA rats, gastric infusion d12 through d20
  weight of thymus: the weight of their thymus are gained
[5]; AA rats, gastric infusion d12 through d20, all three doses of TGP, one dose CCA
  joint swelling: certain improvements in joint swelling
[5]; CCA 50 mg/kgd
  weight of thymus: 14.3 ± 3.9
[5]; d20, CCA 50 mg/kgd
  Degree of Swelling, non-injected foot: 0.41 ± 0.22 mL
[5]; d24, CCA 50 mg/kgd
  Degree of Swelling, non-injected foot: 0.14 ± 0.15 mL
[5]; d28, CCA 50 mg/kgd
  Degree of Swelling, non-injected foot: 0.05 ± 0.02 mL

## Nc1ccc2c(c1)Cc1ccccc1-2 [2-AF]
[6]
  reverting colonies, AT 97: 598 ± 27.4
  reverting colonies, AT 98: 974 ± 30.7
  reverting colonies, AT 100: 772 ± 29.8

## CC(=O)Oc1ccccc1C(=O)O [acetosalicylic acid]
Pregnant Wistar rats
  malformation in appearance (harelip, split tongue, short body, abnormal limbs): 4.4%
Pregnant Wistar rats; P<0.01
  deformity rate in skeletal system: 69.5%
Pregnant Wistar rats; P<0.01 and P<0.05
  growth of embryo rats vs negative control: showed differences in the body weight and length of embryos
Pregnant Wistar rats; day 9 to 11, P<0.01
  absorptive embryo rate, dead embryo rate, survival rate vs negative control: much higher absorptive embryo rate, and dead embryo rate, and lower survival rate

## O=P1(N(CCCl)CCCl)NCCCO1 (centres unmarked) [CTX, Cytoxan]
ICR mice [7]
  MPCE % ± SD: 41.37 ± 10.29%

## CO[C@@]12[C@H](COC(N)=O)C3=C(C(=O)C(C)=C(N)C3=O)N1C[C@@H]1N[C@@H]12 [MMC, Mitomycin C]
[8]
  Deformation (types): g, b, p, t, f
  Deformation Rate: 79.5%

## O=P1(N(CCCl)CCCl)NCCCO1 (centres unmarked) [CP, Cyclophosphamide]
[9]
  Quantity of Ig M (A value): 0.41 ± 0.10
  Weight of Spleen: 56.6 +11.5
  weight of thymus: 6.2 ± 4.7
[10]
  Ig M (A), acceptor mice: 0.53 ± 0.03^ΔΔ
  Rate of inhibition: 24.3
[8]; CP (15 μg/ml, 48, by row order of Table 43)
  Result of chromosome aberration test: + +
[8]; CP (60.0 μg/ml, 24, by row order of Table 43)
  Result of chromosome aberration test: + +
[8]; [14]
  Deformation (types): g, p, b, r, t, f
  Deformation Rate: 44.0%
[8]; S9−, CP 15 μg/ml, incubation 48
  Deformation Rate: 34.5%
ICR mice [11]
  Degree of ear swelling: 28.1 ± 7.2

## 2-hydroxy-3 Methyl-Glucoside-4-Oxo-7-Carbonyl-Tricyclo [3,2,2,0^1,2]-Nonanyl-Benzoicmethoxycarbonyl [Paeoniflorin R1]
Synovial cells
  IL-1, TNF, and PGE2 produced by synovial cells (result worded as Th/Ts): can improve Th/Ts
[1]; 25 mg/kg/d oral
  Degree of Swelling Day 1: 0.59
  Degree of Swelling Day 3: 0.81
  Degree of Swelling Day 5: 0.50
  Degree of Swelling Day 7: 0.40
[3]; 5 mg/kg/d oral
  W. of Thymus Glands: 16.3 mg/kg body W.
  Degree of Swelling Day 12: 0.35
  Degree of Swelling Day 16: 0.42
  Degree of Swelling Day 20: 0.33
  Degree of Swelling Day 24: 0.25
  Degree of Swelling Day 28: 0.26
[3]; 25 mg/kg/d oral
  W. of Thymus Glands: 19.4 mg/kg body W.
  Degree of Swelling Day 12: 0.41±
  Degree of Swelling Day 16: 0.39
  Degree of Swelling Day 20: 0.20
  Degree of Swelling Day 24: 0.15
  Degree of Swelling Day 28: 0.23
[3]; 50 mg/kg/d oral
  W. of Thymus Glands: 13.9 mg/kg body W.
  Degree of Swelling Day 12: 0.40
  Degree of Swelling Day 16: 0.39
  Degree of Swelling Day 20: 0.30
  Degree of Swelling Day 24: 0.27
  Degree of Swelling Day 28: 0.24
[12]
  Amount of H2O2, IL-1, and PGE2 produced by abdominal cavity macrophage: can decrease the above reaction
[13]
  Th/Ts in peripheral circulation: can improve Th/Ts
[2]
  abdominal cavity macrophage PGE2 release: effective in PGE2 release
